Data taken from publication PMC6981581, “N-(2-Arylmethylthio-4-Chloro-5-Methylbenzenesulfonyl)amide Derivatives as Potential Antimicrobial Agents—Synthesis and Biological Studies” (International Journal of Molecular Sciences, 2019).
Values after ≈ are worked out from the molar mass of the structure shown. Values joined by “and” are separate entries in the source; they are usually repeats but may differ in a detail not shown here. Identical values can stand only once. Like-named read-outs stand apart in the source and are kept apart here.

How the values were obtained:
[1] = test system: Staphylococcus aureus ATCC 6538 (MSSA); test: Broth dilution MIC/MBC, reference strain; assay type: cell-based; details: Staphylococcus aureus
Experimental: (§1) The tests were carried out using a serial dilution method, allowing the determination of MIC (minimal concentration inhibiting bacterial growth), MBC (minimal bactericidal concentration), and MFC (minimal fungicidal concentration) values.
(§2) Antimicrobial activity was tested using the following reference strains: Staphylococcus aureus ATCC 6538 (MSSA), Staphylococcus aureus ATCC 43300 (MRSA), Staphylococcus epidermidis PCM 2118, Escherichia coli ATCC 11229, Pseudomonas aeruginosa ATCC 15442, Proteus vulgaris NCTC 4635, Enterococcus faecalis ATCC 11420, and Candida albicans ATCC 10231.
(§3) A broth dilution method was used to determine minimal inhibitory concentration (MIC) for tested compounds as recommended by Clinical Laboratory Standards Institute (CLSI) guidelines. Investigated compounds were diluted in Mueller Hinton Broth 2 (Sigma-Aldrich Co., St. Louis, MO, USA) in polypropylene 96-well plates and initial inoculum 5 × 10^5 cfu/mL were incubated at 37 °C for 18 h. MIC was taken as the lowest drug concentration at which an observable growth was inhibited. […] The loopful (10 µL) of the tested sample was transferred to Tryptic Soy Agar (TSA, Becton-Dickinson, Franklin Lakes, NJ, USA) and incubated at 37 °C for 48 h. […] Drug Solutions were made fresh on the day of the assay. All experiments were performed in triplicate.

[2] = test system: Pseudomonas aeruginosa ATCC 15442; test: Broth dilution MIC/MBC, reference strain; assay type: cell-based; details: Pseudomonas aeruginosa, ATCC15442
Experimental: as §1, §2, §3

[3] = test system: Enterococcus faecalis ATCC 11420; test: Broth dilution MIC/MBC, reference strain; assay type: cell-based; details: Enterococcus faecalis, ATCC11420
Experimental: as §1, §2, §3

[4] = test system: Staphylococcus epidermidis PCM 2118; test: Broth dilution MIC/MBC, reference strain; assay type: cell-based
Experimental: as §1, §2, §3

[5] = test system: Escherichia coli ATCC 11229; test: Broth dilution MIC/MBC, reference strain; assay type: cell-based; details: Escherichia coli, ATCC11229
Experimental: as §1, §2, §3

[6] = test system: Proteus vulgaris NCTC 4635; test: Broth dilution MIC/MBC, reference strain; assay type: cell-based; details: Proteus vulgaris, NCTC4635
Experimental: as §1, §2, §3

[7] = test system: Staphylococcus aureus ATCC 43300 (MRSA); test: Broth dilution MIC/MBC, reference strain; assay type: cell-based; details: Staphylococcus aureus
Experimental: as §1, §2, §3

[8] = test system: Gram-positive reference strains; test: Broth dilution MIC/MBC, summary over Gram-positive reference strains; assay type: cell-based
Experimental: […]. The tests were carried out using a serial dilution method, allowing the determination of MIC (minimal concentration inhibiting bacterial growth), MBC (minimal bactericidal concentration), and MFC (minimal fungicidal concentration) values.
as §2, §3

[9] = test system: Candida albicans ATCC 10231; test: Broth dilution MIC/MFC, reference fungal strain; assay type: cell-based; details: Candida albicans, ATCC10231
Experimental: as §1, §2, §3

[10] = test system: clinical isolates of methicillin-resistant S. aureus (50–54) and methicillin-sensitive S. aureus (55–59); test: Broth dilution MIC/MBC, summary over clinical S. aureus isolates; assay type: cell-based, Staphylococcus aureus
Source text: (§4) […]. Both MRSA and MSSA strains were derived from various human infections.
(§5) […]. Five methicillin-resistant S. aureus strains were isolated from nose (n = 1), bronchoalveolar lavage (n = 1), sputum (n = 1), wound (n = 1), and blood (n = 1); five methicillin-susceptible S. aureus strains were isolated from throat (n = 1), bronchoalveolar lavage (n = 1), sputum (n = 1), abscess (n = 1), and blood (n = 1).
(§6) The identity of S. aureus isolates was confirmed with conventional methods and with Pastorex Staph-Plus latex agglutination kit (Bio-Rad, Marnes-la-Coquette, France) and verified applying the polymerase chain reaction (PCR) of S. aureus-specific region of the thermonuclease gene, nuc. Resistance to methicillin was first verified using cefoxitin disk (30 µg), and then, identified based on the presence of mecA gene. S. aureus ATCC®25923 (methicillin-susceptible) and S. aureus ATCC®43300 (MDR) were applied as the reference strains. Both the reference and clinical strains were stored at −80 °C, in Tryptic Soy Broth (TSB, Becton-Dickinson, Franklin Lakes, NJ, USA) supplemented with 15% glycerol.
as §3

[11] = test system: HaCaT cell line (human keratinocyte); test: MTT cell viability assay; assay type: cell-based; details: 72 h, read-out: IC50 HaCaT
S.aureus 50 (MRSA) = test: Broth dilution MIC/MBC, clinical MRSA isolate; assay type: cell-based; details: Staphylococcus aureus, MRSA
Source text: as §4, §5, §6, §3

S.aureus 52 (MRSA) = test: Broth dilution MIC/MBC, clinical MRSA isolate; assay type: cell-based; details: Staphylococcus aureus, MRSA
Source text: as §4, §5, §6, §3

S.aureus 51 (MRSA) = test: Broth dilution MIC/MBC, clinical MRSA isolate; assay type: cell-based; details: Staphylococcus aureus, MRSA
Source text: as §4, §5, §6, §3

S.aureus 53 (MRSA) = test: Broth dilution MIC/MBC, clinical MRSA isolate; assay type: cell-based; details: Staphylococcus aureus, MRSA
Source text: as §4, §5, §6, §3

S.aureus 54 (MRSA) = test: Broth dilution MIC/MBC, clinical MRSA isolate; assay type: cell-based; details: Staphylococcus aureus, MRSA
Source text: as §4, §5, §6, §3

S.aureus 59 (MSSA) = test: Broth dilution MIC/MBC, clinical MSSA isolate; assay type: cell-based; details: Staphylococcus aureus, MSSA
Source text: as §4, §5, §6, §3

S.aureus 58 (MSSA) = test: Broth dilution MIC/MBC, clinical MSSA isolate; assay type: cell-based; details: Staphylococcus aureus, MSSA
Source text: as §4, §5, §6, §3

S.aureus 55 (MSSA) = test: Broth dilution MIC/MBC, clinical MSSA isolate; assay type: cell-based; details: Staphylococcus aureus, MSSA
Source text: as §4, §5, §6, §3

S.aureus 57 (MSSA) = test: Broth dilution MIC/MBC, clinical MSSA isolate; assay type: cell-based; details: Staphylococcus aureus, MSSA
Source text: as §4, §5, §6, §3

S.aureus 56 (MSSA) = test: Broth dilution MIC/MBC, clinical MSSA isolate; assay type: cell-based; details: Staphylococcus aureus, MSSA
Source text: as §4, §5, §6, §3

MSSA 58 biofilm = test: Biofilm inhibition assay (crystal violet); assay type: cell-based, Staphylococcus aureus
Experimental: (§7) For many decades, S. aureus has been identified as the most common etiologic agent of device related infections, associated with biofilm formation. These infections are hard to cure because the specific structure of biofilm confers resistance to the host immune response and to the action of antibiotics.
(§8) Then, 100 µL bacterial suspension prepared from fresh overnight culture by diluting with TSB to obtain the initial inoculum 2 × 10^6 CFU/mL was added. The plates were incubated for 24 h at 37 °C. After the incubation, the wells were discarded and were gently rinsed three times with PBS to remove planktonic staphylococcal cells. Then, contents of the wells were discarded and the biofilm was fixed with 200 µL methanol for 20 min and dried at room temperature for 30 min. The biofilm was stained by adding 200 µL 1.8% crystal violet solution for 15 min. After staining, the plates were rinsed with water and 200 µL bleaching solution (30% ethanol, 30% glacial acetic acid, 40% water) added for 15 min to dissolve the remaining crystal violet. A microplater reader was used to measure the absorbance of the adherent biofilm at 570 nm (OD570). […] The negative control included only the growth medium.

MRSA 52 biofilm = test: Biofilm inhibition assay (crystal violet); assay type: cell-based, Staphylococcus aureus; details: MRSA 52, 4 × MIC
Experimental: as §7, §8

MSSA 59 biofilm = test: Biofilm inhibition assay (crystal violet); assay type: cell-based, Staphylococcus aureus; details: MSSA 59, 4 × MIC
Experimental: as §7, §8

MRSA 51 biofilm = test: Biofilm inhibition assay (crystal violet); assay type: cell-based, Staphylococcus aureus
Experimental: as §7, §8

Cc1cc(S(=O)(=O)NC(=O)C=Cc2ccccc2)c(SCc2cccc3ccccc23)cc1Cl [Compound 16, N-[4-Chloro-5-methyl-2-(naphthalen-1-ylmethylthio)benzenesulfonyl]cinnamamide]
MBC [1]: > 128 mg/L | MIC [1]: 4 mg/L (≈ 7.87 µM) | MBC [2]: > 128 mg/L | MIC [2]: 128 mg/L (≈ 252 µM) | MBC [3]: > 128 mg/L | MIC [3]: 8 mg/L (≈ 15.7 µM) | MBC ([4]; S. epidermidis PCM 2118): 4 mg/L (≈ 7.87 µM) | MIC ([4]; Staphylococcus epidermidis, PCM2118): 4 mg/L (≈ 7.87 µM) | MBC ([4]; Staphylococcus epidermidis, PCM2118, S. epidermidis PCM 2118, read-out: MBC): 4 to 16 mg/L (≈ 7.87 to 31.5 µM) | MBC [5]: > 128 mg/L | MIC [5]: 128 mg/L (≈ 252 µM) | MBC [6]: > 128 mg/L | MIC [6]: 128 mg/L (≈ 252 µM) | MBC [7]: > 128 mg/L | MIC [7]: 4 mg/L (≈ 7.87 µM) | MIC [8]: 4 to 8 mg/L (≈ 7.87 to 15.7 µM) | MFC [9]: 128 mg/L (≈ 252 µM) | MIC [9]: 64 mg/L (≈ 126 µM) | MBC ([10]; Staphylococcus aureus): > 128 mg/L | MIC ([10]; Staphylococcus aureus): 4 to 8 mg/L (≈ 7.87 to 15.7 µM) | MIC ([10]; summary over ten clinical MRSA and MSSA isolates (Table 4)): 4 to 8 mg/L | IC50 [11]: 19 µg/mL and 38 µM | MBC (S.aureus 50 (MRSA)): > 128 mg/L | MIC (S.aureus 50 (MRSA)): 4 mg/L (≈ 7.87 µM) | MBC (S.aureus 52 (MRSA)): > 128 mg/L | MIC (S.aureus 52 (MRSA)): 4 mg/L (≈ 7.87 µM) | MBC (S.aureus 51 (MRSA)): > 128 mg/L | MIC (S.aureus 51 (MRSA)): 4 mg/L (≈ 7.87 µM) | MBC (S.aureus 53 (MRSA)): > 128 mg/L | MIC (S.aureus 53 (MRSA)): 8 mg/L (≈ 15.7 µM) | MBC (S.aureus 54 (MRSA)): > 128 mg/L | MIC (S.aureus 54 (MRSA)): 8 mg/L (≈ 15.7 µM) | MBC (S.aureus 59 (MSSA)): > 128 mg/L | MIC (S.aureus 59 (MSSA)): 4 mg/L (≈ 7.87 µM) | MBC (S.aureus 58 (MSSA)): > 128 mg/L | MIC (S.aureus 58 (MSSA)): 8 mg/L (≈ 15.7 µM) | MBC (S.aureus 55 (MSSA)): > 128 mg/L | MIC (S.aureus 55 (MSSA)): 4 mg/L (≈ 7.87 µM) | MBC (S.aureus 57 (MSSA)): > 128 mg/L | MIC (S.aureus 57 (MSSA)): 4 mg/L (≈ 7.87 µM) | MBC (S.aureus 56 (MSSA)): > 128 mg/L | MIC (S.aureus 56 (MSSA)): 4 mg/L (≈ 7.87 µM) | inhibition of biofilm formation (MSSA 58 biofilm; MSSA 58, 2 × MIC): 86% | inhibition of biofilm formation (MSSA 58 biofilm; MSSA 58, concentration equal to the MIC): 44% | inhibition of biofilm formation (MRSA 52 biofilm): 87–90% | inhibition of biofilm formation (MSSA 59 biofilm): 87–90% | inhibition of biofilm formation (MRSA 51 biofilm; MRSA 51, 4 × MIC): 87–90% | inhibition of biofilm formation (MRSA 51 biofilm; MRSA 51, concentration equal to the MIC): 35%
